Experimental data reported in patent US4711895A, “4-hydroxy-2-cyclopentenone, process for production thereof, pharmaceutical composition comprising it” (Teijin Limited, priority 1984, dated 1987).
Converted amounts (≈) assume the structure as drawn. Like-named read-outs stand apart in the source and are kept apart here.

What was measured:
[1] = tested on: P388 mouse leukemia cells; test: Antitumor effect on P388 mouse leukemia tumor in ICR mice; type: in vivo; settings: i.p., 5 days
Method: Measurement of the antitumor effect on P338 mouse leukemia tumor
1×10^5 P388 mouse leukemia cells were intraperitoneally administered to ICR mice. After the lapse of 24 hours, each of the test compounds shown in Table II was intraperitoneally administered to the mice for 5 days. The periods of survival of these animals were examined and the increase of their life span (ILS%) were determined.

L1210 leukemia cells = test: Action of inhibiting proliferation of L1210 leukemia cell; type: cell-based; settings: RPMI medium, 10% FCS, 37° C., 4 days, trypan blue
Method: Measurement of the action of inhibiting Proliferation of L1210 leukemia cell
L1210 leukemia cells were added to an RPMI medium containing 10% FCS (fetal calf serum), and the concentration of the cells was adjusted to […]. Each of the test compounds shown in Table I was dissolved in 99.5% ethanol. Prior to use, the final concentration of the ethanol solution was adjusted to less than 0.1%, and it was added to the culture medium. The culture medium was then maintained at 37° C. in a stationary condition for 4 days. After the cultivation, the number of surviving cells was measured by dyeing with trypan blue. As a control, 0.1% ethanol was used. A dose-reaction curve plotted from the ratios of proliferation against the control, and IC50 was determined.

[2] = Mus musculus, 96 h, read-out: IC50

SMILES | Increase of life span ILS (%) ([1]; 15 mg/kg/day) | Survival ([1]; 15 mg/kg/day) [days] | IC50 (L1210 leukemia cells; [2]) [µg/mL] | Increase of life span ILS (%) ([1]; 10 mg/kg/day) | Survival ([1]; 10 mg/kg/day) [days] | Increase of life span ILS (%) ([1]; 5 mg/kg/day) | Survival ([1]; 5 mg/kg/day) [days] | Increase of life span ILS (%) ([1]; 2.5 mg/kg/day) | Survival ([1]; 2.5 mg/kg/day) [days] | IC50 (L1210 leukemia cells) [µg/mL]
CC(C)=CCCC(C)=CC(O)C1C(=O)C=CC1(O)CCCCOc1ccccc1 (stereo not drawn) [Compound 228, 4-(4-phenoxybutyl)-4-hydroxy-5-(3,7-dimethyl-1-hydroxy-2,6-octadiene)-2-cyclopentenone] | 4.1 | 10.2 ± 0.9 | 0.4 (≈ 1 µM) |  |  |  |  |  |  | 
COC(=O)CCCCC/C=C1/C(=O)C(Cl)=CC1(O)CCC(C)CCCC(C)C (stereo not drawn) [Compound 158, 2-chloro-4-(3,7-dimethyloctyl)-4-hydroxy-5-[(E)-6-methoxycarbonylhexylidene]-2-cyclopentenone] |  |  | 0.025 (≈ 0.0605 µM) |  |  |  |  |  |  | 
CCCCCCCCC1(O)C=C(Cl)C(=O)C1=CCCCCCC(=O)OC (stereo not drawn) [Compound 154, 2-chloro-4-hydroxy-5-(6-methoxycarbonylhexylidene)-4-octyl-2-cyclopentenone] |  |  | 0.03 (≈ 0.0779 µM) | 7.1 | 10.5 ± 0.8 |  |  |  |  | 
CCCCCCCC[C@@]1(O)C=CC(=O)/C1=C/CCCCCC(=O)OC [Compound 142, (4R)-5-[(E)-6-methoxycarbonylhexylidene]-4-hydroxy-4-octyl-2-cyclopentenone] |  |  | 0.15 (≈ 0.428 µM) | 15.3 | 11.3 ± 0.5 | 5.4 | 10.3 ± 0.5 |  |  | 
CCCCCCCC[C@@]1(O)C=CC(=O)/C1=C\CCCCCC(=O)OC [Compound 144, (4R)-5-[(Z)-6-methoxycarbonylhexylidene]-4-hydroxy-4-octyl-2-cyclopentenone] | 12.5 | 11.7 ± 0.5 | 0.15 (≈ 0.428 µM) | 17.3 | 12.2 ± 1.2 | 2.9 | 10.7 ± 0.5 |  |  | 
O=C1C=CC(O)(CCCCOc2ccccc2)C1=C/C=C/C(O)CCCO (stereo not drawn) [Compound 148] |  |  |  | 29.6 | 12.7 ± 0.7 | 32.7 | 13.0 ± 1.4 | 15.3 | 11.3 ± 0.5 | 1.5 (≈ 4.03 µM)
COC(=O)CCCCCC=C1C(=O)C(Cl)=CC1(O)CCCc1ccc(OC)c(OC)c1 (stereo not drawn) [Compound 152, 2-chloro-4-hydroxy-4-[3-(3,4-dimethoxyphenyl)propyl]-5-(6-methoxycarbonylhexylidene)-2-cyclopentenone] |  |  | 0.06 (≈ 0.133 µM) | 19.4 | 11.7 ± 1.1 |  |  |  |  | 
COC(=O)CCCCCC(O)C1C(=O)C(Cl)=CC1(O)CCCc1ccc(OC)c(OC)c1 (stereo not drawn) [Compound 226, 2-chloro-4-hydroxy-4-[3-(3,4-dimethoxyphenyl)propyl]-5-(1-hydroxy-6-methoxycarbonylhexyl)-2-cyclopentenone] |  |  | 0.2 (≈ 0.426 µM) |  |  | 10.0 | 11.0 ± 0 |  |  | 
COC(=O)CCCCC/C=C1\C(=O)C(Cl)=CC1(O)CCC(C)CCCC(C)C (stereo not drawn) [Compound 156, 2-chloro-4-(3,7-dimethyloctyl)-4-hydroxy-5-[(Z)-6-methoxycarbonylhexylidene]-2-cyclopentenone] |  |  | 0.035 (≈ 0.0847 µM) |  |  |  |  |  |  | 
